The results in this text go back to the OligoGym collection.

The series has as its target HSD17B13. The following applies: ASO, HepaRG.

After the bases stand the sugars from the 5' end (letter, count) and the backbone: PS all phosphorothioate, else s phosphorothioate and o phosphodiester by linkage. Methylation of C is not given here. e = 2'-O-(2-methoxyethyl) (MOE); k = constrained ethyl (cEt); d = 2'-deoxy (DNA); m = 2'-O-methyl

The sequence GCAGAATATATACTAG (sugars k3 d10 k3, PS) displayed a target mRNA inhibition (1 µM) of 55%.
Still for that read-out and setting: to GCAGAGACAGTAGATT (sugars k3 d10 k3, PS) belongs 63%; to GCAGATTATTATGTGA (sugars k3 d10 k3, PS), 59%.
On to GCAGTAAAGTGCTAAG (sugars k3 d10 k3, PS), for which the target mRNA inhibition (0.02 µM) came out at 44%; the target mRNA inhibition (0.078 µM) stood at 37%; the target mRNA inhibition (0.313 µM) was 62%; the target mRNA inhibition (1 µM) stood at 83%; the target mRNA inhibition (1.25 µM) is 78%; the target mRNA inhibition (5 µM) was 91%.
With GCATAAGTTACCAGAG (sugars k3 d10 k3, PS), the target mRNA inhibition was determined as 0% (0.02 µM); 0% (0.078 µM); 40% (0.313 µM); 79% (1 µM); 51% (1.25 µM); 85% (5 µM).
Consider GCATATTCATTTGGCC (sugars k3 d10 k3, PS), for which the target mRNA inhibition (1 µM) was 6%.
As for “GCATCAAGACATTCTA (sugars k3 d1 m1 d8 k3, PS)”, the target mRNA inhibition (1 µM) is 51%.
As to “GCATCAAGACATTCTA (sugars k3 d9 k3 e1, PS)”, the target mRNA inhibition was found to be 0% (0.02 µM); 8% (0.078 µM); 13% (0.313 µM); 84% (1 µM); 31% (1.25 µM); 74% (5 µM).
Take “GCATGGCTACAGATTG (sugars k3 d1 m1 d8 k3, PS)”: the target mRNA inhibition (0.02 µM) came out at 2%; the target mRNA inhibition (0.078 µM) amounted to 2%; the target mRNA inhibition (0.313 µM) was determined as 31%; the target mRNA inhibition (1 µM) amounted to 76%; the target mRNA inhibition (1.25 µM) is 61%; the target mRNA inhibition (5 µM) amounted to 78%.
As to GCATGGCTACAGATTG (sugars k3 d10 k3, PS), under “1 µM”, the target mRNA inhibition turned out to be 56%.
In turn, “GCATGGCTACAGATTG (sugars kkdddddddddkekek, PS)” displayed a target mRNA inhibition (1 µM) of 41%.
With GCATTAATGCCACCCT (sugars k3 d10 k3, PS), for the setting “1 µM”, the target mRNA inhibition is 36%.
As to GCATTCATCAGATGTT (sugars k3 d10 k3, PS), the target mRNA inhibition (0.02 µM) is 3%; the target mRNA inhibition (0.078 µM) came out at 24%; the target mRNA inhibition (0.313 µM) was 66%; the target mRNA inhibition (1 µM) was 89%; the target mRNA inhibition (1.25 µM) worked out at 86%; the target mRNA inhibition (5 µM) was determined as 91%.
With GCCAAAAATCAGCCAC (sugars k3 d10 k3, PS), the target mRNA inhibition (1 µM) was 11%.
For the setting “1 µM”, GCCAACACTAATCTCA (sugars k3 d10 k3, PS) displayed a target mRNA inhibition of 40%.
As to GCCACTGGATGGATTT (sugars k3 d10 k3, PS), the target mRNA inhibition (1 µM) turned out to be 36%.
In turn, GCCACTGTGACGATGT (sugars k3 d10 k3, PS) had a target mRNA inhibition (1 µM) of 9%.
As for GCCAGTACAGTTCCTT (sugars k3 d10 k3, PS), for the setting “1 µM”, the target mRNA inhibition amounted to 61%.
For GCCTAAAATTGTCTAA (sugars k3 d10 k3, PS), the target mRNA inhibition (1 µM) is 32%.
Still for that read-out and setting: to GCCTAAACATTTCTCA (sugars k3 d10 k3, PS) belongs 2%; to GCCTAAAGGAGATCTG (sugars k3 d10 k3, PS), 67%; to GCCTTACCAGAATTTA (sugars k3 d10 k3, PS), 75%.
Same read-out and setting: next, GCGATAGATCTCTTCT (sugars k3 d10 k3, PS): 24%.
On to GCTAAAATGGTCATCT (sugars k3 d10 k3, PS), for which the target mRNA inhibition (1 µM) stood at 40%.
On the same count and under the same terms, to GCTAAGTATACTTTCT (sugars k3 d10 k3, PS) belongs 37%.
Regarding GCTAATGTATGAGGTC (sugars k3 d10 k3, PS), the target mRNA inhibition is 0% (0.02 µM); 0% (0.078 µM); 34% (0.313 µM); 78% (1 µM); 64% (1.25 µM); 82% (5 µM).
The sequence GCTATAGGTAGCTAAT (sugars k3 d10 k3, PS) registered a target mRNA inhibition (1 µM) of 20%.
The sequence GCTCCAGTAATGAGAA (sugars k3 d10 k3, PS) returned a target mRNA inhibition (1 µM) of 34%.
On the same count and under the same terms, next, GCTGAAACTGCTGATT (sugars k3 d10 k3, PS): 38%; GCTGAGAGTTCTACAC (sugars k3 d10 k3, PS): 45%; GCTGATTAATCTTGAT (sugars k3 d10 k3, PS): 48%.
The sequence GCTGCTAGTGCCAAAC (sugars k3 d10 k3, PS) displayed a target mRNA inhibition (1 µM) of 67%.
The same measure, in the same setting: next, GCTGCTATTTAGGGCA (sugars k3 d10 k3, PS): 53%; GCTGTAATTAGGAAGA (sugars k3 d10 k3, PS): 24%; “GCTGUAAGAGTCAGTA (sugars k3 d1 m1 d8 k3, PS)”: 28%.
Turning to GCTTAATGTTCAGTTT (sugars k3 d10 k3, PS), the target mRNA inhibition (1 µM) is 50%.
As for GCTTATGAAGTTAGTA (sugars k3 d10 k3, PS), the target mRNA inhibition amounted to 0% (0.02 µM); 17% (0.078 µM); 27% (0.313 µM); 67% (1 µM); 66% (1.25 µM); 86% (5 µM).
GCTTTAGCTTAAACTC (sugars k3 d10 k3, PS) had a target mRNA inhibition (1 µM) of 72%.
As to GCTTTTGTCCACCTTT (sugars k3 d10 k3, PS), the target mRNA inhibition runs as follows: (0.02 µM) 28%; (0.078 µM) 44%; (0.313 µM) 61%; (1 µM) 68%; (1.25 µM) 82%; (5 µM) 97%.
Take GGAATGCTACTTGAAC (sugars k3 d10 k3, PS): where the note is “1 µM”, the target mRNA inhibition was 63%.
GGACAAATGCCTGAGA (sugars k3 d10 k3, PS): the target mRNA inhibition (1 µM) was 52%.
Where the note is “1 µM”, GGACCAAGGATATATG (sugars k3 d10 k3, PS) displayed a target mRNA inhibition of 56%.
In the case of GGAGGTAGCTTTTGTC (sugars k3 d10 k3, PS), the target mRNA inhibition (1 µM) turned out to be 43%.
As to GGATAAGAAGAGAGCT (sugars k3 d10 k3, PS), where the note is “1 µM”, the target mRNA inhibition was determined as 46%.
On the same count and under the same terms, next, GGATAGTCCATGCAAA (sugars k3 d10 k3, PS): 64%; GGCAAAAGGAGCCAGT (sugars k3 d10 k3, PS): 43%.
The same measure, in the same setting: next, GGCAAAGATCTGGCCA (sugars k3 d10 k3, PS): 10%; GGCAAATACAGCAGTA (sugars k3 d10 k3, PS): 64%; GGCAAGACAGACTGTT (sugars k3 d10 k3, PS): 75%.
In turn, GGCAAGGATACCTGAA (sugars k3 d10 k3, PS) had a target mRNA inhibition (1 µM) of 67%.
In turn, GGCACTCAGCTGCAGT (sugars k3 d10 k3, PS) gave a target mRNA inhibition (1 µM) of 49%.
In the case of GGCATTAGATGGTAAG (sugars k3 d10 k3, PS), under “1 µM”, the target mRNA inhibition amounted to 62%.
In turn, GGCTACAGATTGGAAT (sugars k3 d10 k3, PS) displayed a target mRNA inhibition (1 µM) of 23%.
For the sequence GGCTTAATGTTCAGTT (sugars k3 d10 k3, PS), under “1 µM”, the target mRNA inhibition stood at 54%.
In turn, GGCTTAATTTTCGGGT (sugars k3 d10 k3, PS) had a target mRNA inhibition (1 µM) of 17%.
Take GGGACCAAGGATATAT (sugars k3 d10 k3, PS): the target mRNA inhibition (1 µM) came to 17%.
In turn, GGGAGGAGGTACTGTC (sugars k3 d10 k3, PS) gave a target mRNA inhibition (1 µM) of 35%.
Where the note is “1 µM”, “GGGAGGTAGCTTTTGT (sugars k3 d1 m1 d8 k3, PS)” had a target mRNA inhibition of 17%.
Sequence GGGCTAATGAAAAAGG (sugars k3 d10 k3, PS) returned a target mRNA inhibition (1 µM) of 14%.
The same measure, in the same setting: to GGTAATCTCTTCATCC (sugars k3 d10 k3, PS) belongs 9%; to GGTCCATTGTTTCTTA (sugars k3 d10 k3, PS), 36%.
Still for that read-out and setting: to GGTGCTGAGAAGATCG (sugars k3 d10 k3, PS) belongs 33%; to GGTTCAGTCCTTGTGT (sugars k3 d10 k3, PS), 57%; to GTAAAATTATGCCTTG (sugars k3 d10 k3, PS), 50%.
For the setting “1 µM”, GTAAAGGCTGGGTGAG (sugars k3 d10 k3, PS) came in with a target mRNA inhibition of 41%.
The sequence GTAACGGTGATCAAAT (sugars k3 d10 k3, PS) had a target mRNA inhibition (1 µM) of 34%.
Take GTAAGGAATCCCTTCG (sugars k3 d10 k3, PS): where the note is “1 µM”, the target mRNA inhibition is 22%.
Still for that read-out and setting: to “GTAATAGCCAGTACAG (sugars kkdddddddddkekek, PS)” belongs 47%; to “GTAGCTTTTGTCCACC (sugars k3 d9 k3 e1, PS)”, 67%.
As for GTAGTCCTAGGGAGGA (sugars k3 d10 k3, PS), the target mRNA inhibition reads like this: (0.02 µM) 20%; (0.078 µM) 50%; (0.313 µM) 62%; (1 µM) 77%; (1.25 µM) 75%; (5 µM) 86%.
Where the note is “1 µM”, GTATCATTTGGCTTAA (sugars k3 d10 k3, PS) showed a target mRNA inhibition of 29%.
On to “GTATCTTATAAGACTA (sugars k3 d1 m1 d8 k3, PS)”, for which the target mRNA inhibition is, setting by setting: (0.02 µM) 13%; (0.078 µM) 26%; (0.313 µM) 39%; (1 µM) 79%; (1.25 µM) 66%; (5 µM) 84%.
GTATCTTATAAGACTA (sugars k3 d10 k3, PS) returned a target mRNA inhibition (0.02 µM) of 50%; a target mRNA inhibition (0.078 µM) of 61%; a target mRNA inhibition (0.313 µM) of 68%; a target mRNA inhibition (1 µM) of 81%; a target mRNA inhibition (1.25 µM) of 87%; a target mRNA inhibition (5 µM) of 95%.
